According to patent US11180504B2 (ORCHID PHARMA LTD., priority 2016, dated 2021):
≈ marks a conversion by molar mass, not a printed value. Read-outs that look alike come from different tables or passages of the source.

Legend:
[1] = system: carbapenem sensitive Pseudomonas aeruginosa; assay: MIC by broth micro-dilution (CLSI), carbapenem sensitive P. aeruginosa; format: cell-based
[2] = system: methicillin-sensitive Staphylococcus aureus; assay: MIC by broth micro-dilution (CLSI), methicillin-sensitive S. aureus; format: cell-based; conditions: MSSA S. aureus ATCC29213
[3] = system: carbapenemase producing K. pneumoniae; assay: MIC by broth micro-dilution (CLSI), carbapenemase producing K. pneumoniae; format: cell-based, Klebsiella pneumoniae
[4] = system: carbapenem sensitive Escherichia coli; assay: MIC by broth micro-dilution (CLSI), carbapenem sensitive E. coli; format: cell-based
[5] = Pseudomonas aeruginosa, ATCC27853, Meropenem susceptible P. aeruginosa ATCC27853, read-out: MIC
[6] = Staphylococcus aureus, ATCC 29213 / MSSA, read-out: MIC
[7] = Klebsiella pneumoniae, ATCCBAA1705, KPC-2 K. pneumoniae ATCC BAA-1705, read-out: MIC
[8] = Escherichia coli, ATCC25922, ESBL −ve E. coli ATCC25922, read-out: MIC

Compound	MIC [1, 5] [µg/mL]	MIC [2, 6] [µg/mL]	MIC [3, 7] [µg/mL]	MIC [4, 8] [µg/mL]	MIC ([1]; Meropenem susceptible P. aeruginosa ATCC27853) [µg/mL]	MIC [2] [µg/mL]	MIC ([3]; KPC-2 K. pneumoniae ATCC BAA-1705) [µg/mL]	MIC ([4]; ESBL −ve E. coli ATCC25922) [µg/mL]
C[C@@H](NC(=O)c1cnccn1)[C@H]1C(=O)N2C(C(=O)O)=C(S[C@@H]3CN[C@H](C(=O)N(C)C)C3)[C@H](C)[C@H]12 [Example 303, (4R,5S,6R)-3-((3S,5S)-5-(dimethylcarbamoyl)pyrrolidin-3-ylthio)-4-methyl-7-oxo-6-((R) - 1-(pyrazine-2-carboxamido)ethyl) - 1-azabicyclo[3.2.0]hept-2-ene-2-carboxylic acid]	> 128	2 (≈ 4.09 µM)	64 (≈ 131 µM)	4 (≈ 8.19 µM)	–	–	–	–
C[C@@H](NC(=O)Cn1cnnn1)[C@H]1C(=O)N2C(C(=O)O)=C(SC3CN(C4=NCCS4)C3)[C@H](C)[C@@H]12 [Example 294]	16 (≈ 32.5 µM)	1 (≈ 2.03 µM)	1 (≈ 2.03 µM)	0.06 (≈ 0.122 µM)	–	–	–	–
C[C@@H](NC(=O)Cn1cnnn1)[C@H]1C(=O)N2C(C(=O)O)=C(S[C@@H]3CN[C@H](C(=O)N4CCN(C(=O)CN)CC4)C3)[C@H](C)[C@H]12 [Example 395, (4R,5S,6R)-6-((R)-1-(2-(1H-tetrazol-1-yl)acetamido)ethyl)-3-((3S,5S)-5-(4-(2-aminoacetyl)piperazine-1-carbonyl)pyrrolidin-3-ylthio)-4-methyl-7-oxo-1-azabicyclo[3.2.0]hept-2-ene-2-carboxylic acid]	1 (≈ 1.69 µM)	2 (≈ 3.39 µM)	1 (≈ 1.69 µM)	0.125 (≈ 0.212 µM)	–	–	–	–
C[C@@H](NC(=O)Cn1cnnn1)[C@H]1C(=O)N2C(C(=O)O)=C(S[C@@H]3CN[C@H](C(=O)N4C[C@@H](N)C[C@H]4CNS(C)(=O)=O)C3)[C@H](C)[C@H]12 [Example 441, (4R,5S,6R)-6-((R)-1-(2-(1H-tetrazol-1-yl)acetamido)ethyl)-3-((3S,5S)-5-((2S,4S)-4-amino-2-(methylsulfonamido-methyl)pyrrolidine-1-carbonyl)pyrrolidin-3-ylthio)-4-methyl-7-oxo-1-azabicyclo[3.2.0]hept-2-ene-2-carboxylic acid]	8 (≈ 12.5 µM)	4 (≈ 6.24 µM)	2 (≈ 3.12 µM)	0.25 (≈ 0.39 µM)	–	–	–	–
CNCc1cn(CC(=O)N[C@H](C)[C@H]2C(=O)N3C(C(=O)O)=C(S[C@@H]4CN[C@H](C(=O)N(C)C)C4)[C@H](C)[C@H]23)nn1 [Example 309, (4R,5S,6R)-3-((3S,5S)-5-(dimethylcarbamoyl)pyrrolidin-3-ylthio)-4-methyl-6-((R) - 1-(2-(4-((methylamino)methyl)-1H-1,2,3-triazol-1-yl)acetamido)ethyl)-7-oxo-1-azabicyclo[3.2.0]hept-2-ene-2-carboxylic acid]	32 (≈ 59.9 µM)	16 (≈ 29.9 µM)	4 (≈ 7.48 µM)	1 (≈ 1.87 µM)	–	–	–	–
C[C@@H](NC(=O)Cn1cnnn1)[C@H]1C(=O)N2C(C(=O)O)=C(S[C@@H]3CN[C@H](C(=O)N4CCC5NCCCC54)C3)[C@H](C)[C@H]12 (single isomer, unassigned) [Example 469]	–	–	–	–	4 (≈ 6.97 µM)	4 (≈ 6.97 µM)	2 (≈ 3.49 µM)	0.5 (≈ 0.872 µM)
COc1nnnn1CC(=O)N[C@H](C)[C@H]1C(=O)N2C(C(=O)O)=C(S[C@@H]3CN[C@H](C(=O)N(C)C)C3)[C@H](C)[C@H]12 [Example 385, (4R,5S,6R)-3-((3S,5S)-5-(dimethylcarbamoyl)pyrrolidin-3-ylthio)-6-((R)-1-(2-(5-methoxy-1H-tetrazol-1-yl)acetamido)ethyl)-4-methyl-7-oxo-1-azabicyclo[3.2.0]hept-2-ene-2-carboxylic acid]	64 (≈ 122 µM)	4 (≈ 7.65 µM)	2 (≈ 3.83 µM)	0.25 (≈ 0.478 µM)	–	–	–	–
C[C@@H](NC(=O)CN1CCNCC1)[C@H]1C(=O)N2C(C(=O)O)=C(S[C@@H]3CN[C@H](C(=O)N(C)C)C3)[C@H](C)[C@H]12 [Example 508, (4R,5S,6R)-3-((3S,5S)-5-(dimethylcarbamoyl)pyrrolidin-3-ylthio)-4-methyl-7-oxo-6-((R)-1-(2-(piperazin-1-yl)acetamido)ethyl)-1-azabicyclo[3.2.0]hept-2-ene-2-carboxylic acid]	128 (≈ 252 µM)	16 (≈ 31.5 µM)	8 (≈ 15.7 µM)	2 (≈ 3.93 µM)	–	–	–	–
C[C@@H](NC(=O)Cn1cnnn1)[C@H]1C(=O)N2C(C(=O)O)=C(S[C@@H]3CN[C@H](C(=O)N4CCC(C)(N)CC4)C3)[C@H](C)[C@H]12 [Example 332, (4R,5S,6R)-6-((R) - 1-(2-(1H-tetrazol-1-yl)acetamido)ethyl)-3-((3S,5S)-5-(4-amino-4-methylpiperidine-1-carbonyl)pyrrolidin-3-ylthio)-4-methyl-7-oxo-1-azabicyclo[3.2.0]hept-2-ene-2-carboxylic acid]	8 (≈ 14.2 µM)	8 (≈ 14.2 µM)	4 (≈ 7.12 µM)	1 (≈ 1.78 µM)	–	–	–	–

Continued, values first:

MIC [1, 5] [µg/mL]	MIC [2, 6] [µg/mL]	MIC [3, 7] [µg/mL]	MIC [4, 8] [µg/mL]	MIC ([1]; Meropenem susceptible P. aeruginosa ATCC27853) [µg/mL]	MIC [2] [µg/mL]	MIC ([3]; KPC-2 K. pneumoniae ATCC BAA-1705) [µg/mL]	MIC ([4]; ESBL −ve E. coli ATCC25922) [µg/mL]	Compound
2 (≈ 3.38 µM)	4 (≈ 6.76 µM)	1 (≈ 1.69 µM)	0.5 (≈ 0.845 µM)	–	–	–	–	C[C@@H](NC(=O)Cn1cnnn1)[C@H]1C(=O)N2C(C(=O)O)=C(S[C@@H]3CN[C@H](C(=O)N4CCC(CN)(CO)CC4)C3)[C@H](C)[C@H]12 [Example 463, (4R,5S,6R)-6-((R)-1-(2-(1H-tetrazol-1-yl)acetamido)ethyl)-3-((3S,5S)-5-(4-(aminomethyl)-4-(hydroxymethyl)piperidine-1-carbonyl)pyrrolidin-3-ylthio)-4-methyl-7-oxo-1-azabicyclo[3.2.0]hept-2-ene-2-carboxylic acid]
0.5 (≈ 0.848 µM)	4 (≈ 6.78 µM)	2 (≈ 3.39 µM)	0.25 (≈ 0.424 µM)	–	–	–	–	C[C@@H](NC(=O)Cn1cnnn1)[C@H]1C(=O)N2C(C(=O)O)=C(S[C@@H]3CN[C@H](C(=O)N4C[C@@H]5CNC[C@]5(CO)C4)C3)[C@H](C)[C@H]12 [Example 525, (4R,5S,6R)-6-((R)-1-(2-(1H-tetrazol-1-yl)acetamido)ethyl)-3-((3S,5S)-5-((3aS,6aS)-3a-(hydroxymethyl)octahydropyrrolo[3,4-c]pyrrole-2-carbonyl)pyrrolidin-3-ylthio)-4-methyl-7-oxo-1-azabicyclo[3.2.0]hept-2-ene-2-carboxylic acid]
2 (≈ 3.65 µM)	2 (≈ 3.65 µM)	2 (≈ 3.65 µM)	0.25 (≈ 0.457 µM)	–	–	–	–	C[C@@H](NC(=O)Cn1cnnn1)[C@H]1C(=O)N2C(C(=O)O)=C(S[C@@H]3CN[C@H](C(=O)N4CCCNCC4)C3)[C@H](C)[C@H]12 [Example 516, (4R,5S,6R)-3-((3S,5S)-5-(1,4-diazepane-1-carbonyl)pyrrolidin-3-ylthio)-6-((R)-1-(2-(1H-tetrazol-1-yl)acetamido)ethyl)-4-methyl-7-oxo-1-azabicyclo[3.2.0]hept-2-ene-2-carboxylic acid]
1 (≈ 1.77 µM)	2 (≈ 3.55 µM)	2 (≈ 3.55 µM)	0.25 (≈ 0.444 µM)	–	–	–	–	C[C@@H](NC(=O)Cn1cnnn1)[C@H]1C(=O)N2C(C(=O)O)=C(S[C@@H]3CN[C@H](C(=O)N4C[C@@H](N)C[C@H]4CO)C3)[C@H](C)[C@H]12 [Example 412, (4R,5S,6R)-6-((R)-1-(2-(1H-tetrazol-1-yl)acetamido)ethyl)-3-((3S,5S)-5-((2S,4S)-4-amino-2-(hydroxymethyl)pyrrolidine-1-carbonyl)pyrrolidin-3-ylthio)-4-methyl-7-oxo-1-azabicyclo[3.2.0]hept-2-ene-2-carboxylic acid]
0.5 (≈ 0.826 µM)	2 (≈ 3.3 µM)	0.5 (≈ 0.826 µM)	0.125 (≈ 0.206 µM)	–	–	–	–	C[C@@H](NC(=O)Cn1cnnn1)[C@H]1C(=O)N2C(C(=O)O)=C(S[C@@H]3CN[C@H](C(=O)N4C[C@H](CO)[C@@H](NC(=N)N)C4)C3)[C@H](C)[C@H]12 [Example 592, (4R,5S,6R)-6-((R)-1-(2-(1H-tetrazol-1-yl)acetamido)ethyl)-3-((3S,5S)-5-((3R,4S)-3-guanidino-4-diazabicyclo[3.2.0]heptane-3-(hydroxymethyl)pyrrolidine-1-carbonyl)pyrrolidin-3-ylthio)-4-methyl-7-oxo-1-azabicyclo[3.2.0]hept-2-ene-2-carboxylic acid]
16 (≈ 28.4 µM)	8 (≈ 14.2 µM)	4 (≈ 7.1 µM)	0.25 (≈ 0.444 µM)	–	–	–	–	CO[C@H]1CN(C(=O)[C@@H]2C[C@H](SC3=C(C(=O)O)N4C(=O)[C@H]([C@@H](C)NC(=O)Cn5cnnn5)[C@H]4[C@H]3C)CN2)C[C@@H]1N [Example 494, (4R,5S,6R)-6-((R)-1-(2-(1H-tetrazol-1-yl)acetamido)ethyl)-3-((3S,5S)-5-((3S,4S)-3-amino-4-methoxypyrrolidine-1-carbonyl)pyrrolidin-3-ylthio)-4-methyl-7-oxo-1-azabicyclo[3.2.0]hept-2-ene-2-carboxylic acid]
0.25 (≈ 0.445 µM)	0.5 (≈ 0.89 µM)	0.5 (≈ 0.89 µM)	0.06 (≈ 0.107 µM)	–	–	–	–	C[C@@H](NC(=O)Cn1cnnn1)[C@H]1C(=O)N2C(C(=O)O)=C(S[C@@H]3CN[C@H](C(=O)N4CC(NC(=N)N)C4)C3)[C@H](C)[C@H]12 [Example 566, (4R,5S,6R)-6-((R)-1-(2-(1H-tetrazol-1-yl)acetamido)ethyl)-3-((3S,5S)-5-(3-guanidinoazetidine-1-carbonyl)pyrrolidin-3-ylthio)-4-methyl-7-oxo-1-azabicyclo[3.2.0]hept-2-ene-2-carboxylic acid]
2 (≈ 3.65 µM)	4 (≈ 7.3 µM)	2 (≈ 3.65 µM)	0.5 (≈ 0.913 µM)	–	–	–	–	C[C@@H](NC(=O)Cn1cnnn1)[C@H]1C(=O)N2C(C(=O)O)=C(S[C@@H]3CN[C@H](C(=O)N4CC[C@@H](CN)C4)C3)[C@H](C)[C@H]12 [Example 472, (4R,5S,6R)-6-((R)-1-(2-(1H-tetrazol-1-yl)acetamido)ethyl)-3-((3S,5S)-5-((S)-3-(aminomethyl)pyrrolidine-1-carbonyl)pyrrolidin-3-ylthio)-4-methyl-7-oxo-1-azabicyclo[3.2.0]hept-2-ene-2-carboxylic acid]
